For one experiment, the system named is Golgi membranes. The experiment in a line: Membrane integrity: retention of a preformed UDP-[3H]-GlcNAc gradient. The class given is biochemical, CHO cells. The note with it: Fig. 5 A; MAS 3.3 µM, ARFp13 43 µM, NEM 1 mM, SDS 50 µM; 10 min with inhibitors.
The subject of experiment [1] is glycosylation of endogenous VSV-g protein. The class given is biochemical, CHO cells.
Experiment [2] concerns glycosylation of VSV-g protein. The class given is biochemical, CHO cells.
Experiment [3] relates to p200 binding to rat liver Golgi membranes. The note with it: 100 µM MAS; cited from earlier work.
The subject of the next experiment is in vitro Golgi transport. The class given is biochemical, CHO cells.
Experiment [4] has as its system beta-COP binding to isolated Golgi membranes. The conditions noted are these: 25 µM MAS; cited from earlier work.
The subject of experiment [5] is release of vesicles from the TGN of PC12 cells. The conditions noted are these: cited from earlier work.

Values joined by “and” are separate entries in the source; they are usually repeats but may differ in a detail not shown here. Identical values can stand only once. Like-named read-outs stand apart in the source and are kept apart here.

With `CCN1C(=O)C=CC1=O` [NEM], in the experiment with Golgi membranes, the “Integrity of the membranes” value is “near complete loss of membrane integrity”. The “Effect on glycosylation of VSV-g protein” value in experiment [1] is given as “similarly inhibitory effect”. Moreover, the “Glycosylation of VSV-g protein after its delivery to the acceptor compartment” value in experiment [2] is “subse- quent glycosylation is inhibited”.
As to Mastoparan, the “Stimulation of p200 binding to rat liver Golgi membranes in vitro” value in experiment [3] is given as “more than sevenfold”. In addition, the “IC50 with normal versus ARF-depleted cytosol” value in the experiment with in vitro Golgi transport is given as “the same”. The IC50 was determined as 0.75 µM in the experiment with in vitro Golgi transport (read-out: IC50 for inhibition of in vitro Golgi transport); 2.2 µM in the experiment on in vitro Golgi transport (read-out: IC50 in vitro transport, addition of BFA 0 µM); 2 µM in the experiment with in vitro Golgi transport (read-out: IC50 in vitro transport, addition of BFA 200 µM); 1.4 µM with in vitro Golgi transport (read-out: IC50 in vitro transport, addition of GTP 0 µM); 1.3 µM in the experiment with in vitro Golgi transport (read-out: IC50 in vitro transport, addition of GTP 50 µM); 1.3 µM in the experiment with in vitro Golgi transport (read-out: IC50 in vitro transport, mock-treated membranes). Also, the IC50 was 1.3 µM in the experiment on in vitro Golgi transport (read-out: IC50 in vitro transport, pertussis toxin treated membranes); 2800 nM and 1900 nM in experiment [2] (read-out: IC50, peptide added before glycosylation). In addition, the “Integrity of the membranes” value in the experiment on Golgi membranes is reported as “near complete loss of membrane integrity”. In experiment [1], the “Effect on glycosylation of VSV-g protein” value is reported as “similarly inhibitory effect”. Also, the “Glycosylation of VSV-g protein after its delivery to the acceptor compartment” value in experiment [2] is “subse- quent glycosylation is inhibited”. Also, in experiment [4], the “Increase in the amount of beta-COP bound to isolated Golgi membranes” value was 10 fold. Further, the “Inhibition of release of vesicles from the TGN” value in experiment [5] is recorded as around 30%.
Pertussis toxin: the “Stimulation of TGN vesicle release after pertussis toxin treatment” value in experiment [5] is 1.6- 1.7 fold.
With `CCCCCCCCCCCCOS(=O)(=O)[O-].[Na+]` [SDS], the “Integrity of the membranes” value in the experiment on Golgi membranes was “only partially compromised”. For the same compound, the “Effect on glycosylation of VSV-g protein” value in experiment [1] is reported as “similarly inhibitory effect”.

A word on the IC50: it is the concentration at which inhibition is half-maximal.

(Values after PMC2120305 (The Journal of Cell Biology, 1994).)
